Results as given in patent publication US7892350B2, “Sacrificial agents for fly ash concrete” (Boral Material Technologies Inc., priority 2003, dated 2011).
Read-outs that look alike come from different tables or passages of the source.

How the values were obtained:
[1] = Paste air entrainment, Maximum air protocol; conditions: for Average of air entrained at 66 min: over the fly ash:PCA pastes of Table 9
Experimental: Preparation of pastes: Pastes were prepared by pouring 400 g of cementitious powder in the 350-400 g of solution (water and additives) in a vessel (8.4 cm dia,×14.5 cm height) while gently stirring with a spatula; the exact quantity of water depends on the selected W/B ratio (see below); rapid hand mixing was continued for 1 minute, followed by intense stirring at 25° C. during 2 min using a hand-held mixer (BRAUN model MR400). The level of air entrained is dependent on the mode of utilisation of the mixer, namely the height of the mixer from the bottom of the vessel and the length of the mixing stroke; the following protocols were adopted.
Fluidity measurements: For all air entrainment measurements, the initial fluidity of the paste (without additives) was controlled using the ‘mini-slump’ procedure widely used for paste and grouts. In this protocol, a portion of the paste was transferred into the min-slump cone (a 2¼″ high, 1½″ bottom diameter, ¾″ top diameter cone); excess paste was skimmed-off with a straight; the cone was then raised and the spread diameter of the paste was recorded (average of two measurements). The fluidity is measured at 10 minutes after mixing. The paste is returned to the batch and reserved for subsequent AE measurements. The fluidity of the paste (without SA and AEA) is adjusted by changing the amount of water (water/cementitious ratio) which yields a spread diameter of 115±5 mm. The latter is monitored regularly.
Air entrainment measurements: For air entrainment measurements, a portion of the paste was transferred to overfill a Plexiglas cylinder (3¾ inches height, 2 inches interior diameter), which was then levelled flush to the top of the cylinder with a straight edge. The mass of the filled cylinder, minus the weight of the empty cylinder, is then recorded and used to calculate the amount of air according to the following formula: […]
This procedure was carried out at three times at 30 min. intervals (6, 36 and 66 min); the paste was let to stand at rest between measurements, and was stirred gently by hand for one minute prior to the subsequent air entrainment measurements.
Other combinations of air entrainment agents and sacrificial agents were prepared as stock solutions following the procedure outlined above, adjusting the weights of the various components to achieve the desired component ratios.

[2] = Second sacrificial agent testing protocol: paste air measurements with DDBS (0.0125 wt %) and rating; on Overall performance rating (second protocol rating): key: 0: Fail; 1: Poor; 2: Good; 3: Preferred; 4: Most preferred; on SA Rating (0-4): key: 0: Fail; 1: Poor; 2: Good; 3: Preferred; 4: Most preferred
Method in brief: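 Air entrainment was measured in cement pastes of fixed composition and fluidity. The candidate agent was tested alone at 0.1 wt % in a cement-only paste. It was also tested at 0.05 and 0.1 wt % in a fly ash (B1)-cement paste with DDBS, where air recovery was calculated against the same paste without agent.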

[3] = 50:50 fly ash B1 (LOI 4.36%):PCA paste, Air 30 (0.0125 wt %)/ND/X=1/4/4, X = the labelled SA
[4] = 50:50 fly ash C1 (LOI 1.62%):PCA paste, Air 30 (0.0125 wt %)/ND/X=1/4/4, X = the labelled SA
[5] = 50:50 fly ash D (LOI […]):PCA paste, Air 30 (0.0125 wt %)/ND/X=1/4/4, X = the labelled SA
[6] = 50:50 fly ash M1 (LOI […]):PCA paste, Air 30 (0.0125 wt %)/ND/X=1/4/4, X = the labelled SA
[7] = 50:50 fly ash M2 (LOI 5.34%):PCA paste, Air 30 (0.0125 wt %)/ND/X=1/4/4, X = the labelled SA
[8] = 50:50 fly ash M3 (LOI 11.33%):PCA paste, Air 30 (0.0125 wt %)/ND/X=1/4/4, X = the labelled SA
[9] = 50:50 fly ash R (LOI […]):PCA paste, Air 30 (0.0125 wt %)/ND/X=1/4/4, X = the labelled SA
[10] = PCA paste, no fly ash, Air 30 (0.0125 wt %)/ND/X=1/4/4, X = the labelled SA
[11] = Air 30 (0.0125 wt %)/ND/X=1/4/4, X = the labelled SA
[12] = Portland cement paste (PCA), […]
[13] = sacrificial agent overall rating index

| Compound | Air entrained at 66 min [1, 3] | Air entrained at 66 min [1, 4] | Air entrained at 66 min [1, 5] | Air entrained at 66 min [1, 6] | Air entrained at 66 min [1, 7] | Air entrained at 66 min [1, 8] | Air entrained at 66 min [1, 9] | Air entrained at 66 min [1, 10] | Average of air entrained at 66 min [1, 11] | Overall performance rating (second protocol rating) [2] | also measured |
| --- | --- | --- | --- | --- | --- | --- | --- | --- | --- | --- | --- |
| Sodium di-butyl naphthalene sulfonate [DBNS] |  |  |  |  |  |  |  |  |  |  | Air entrained at 66 min ([1]; 50:50 fly ash B1 (LOI 4.36%):PCA paste, Air 30 (0.0125 wt %)/X/ButOH=1/4/4, X = the labelled sulfonated SA): 11 vol %; Air entrained at 66 min ([1]; 50:50 fly ash D (LOI […]):PCA paste, Air 30 (0.0125 wt %)/X/ButOH=1/4/4, X = the labelled sulfonated SA): 20 vol %; Air entrained at 66 min ([1]; 50:50 fly ash M2 (LOI 5.34%):PCA paste, Air 30 (0.0125 wt %)/X/ButOH=1/4/4, X = the labelled sulfonated SA): 7 vol %; Air entrained at 66 min ([1]; PCA paste, no fly ash, Air 30 (0.0125 wt %)/X/ButOH=1/4/4, X = the labelled sulfonated SA): 17 vol % |
| OCC(O)CO [Glycerol] | 12 vol % | 18 vol % | 18 vol % | 16 vol % | 7 vol % | 11 vol % | 18 vol % | 16 vol % | 14% | 2 | B1 + 0.0125% DDBS + 0.1% SA (air entrainment) ([2]; B1 FA/cement paste, […]): 2.3; PCA + 0.1% SA (level of air entrainment by the candidate sacrificial agent) [2, 12]: 0.1; SA Rating (0-4) [2, 13]: 2 |
| CCCCOCCOCCO [Di-EGBE, Di-ethylene glycol butyl ether] | 16 vol % | 21 vol % | 24 vol % | 21 vol % | 11 vol % | 17 vol % | 22 vol % | 22 vol % | 19% | 4 | B1 + 0.0125% DDBS + 0.05% SA (air entrainment) ([2]; B1 FA/cement paste, […]): 9.9; B1 + 0.0125% DDBS + 0.1% SA (air entrainment) ([2]; B1 FA/cement paste, […]): 11.2; PCA + 0.1% SA (level of air entrainment by the candidate sacrificial agent) [2, 12]: 2.7; SA Rating (0-4) [2, 13]: 4 |
| CC(O)C(O)c1ccccc1 (stereo not drawn) [1-Phe 2-Pro, 1-Phenyl 2-propylene glycol] | 13 vol % | 18 vol % | 18 vol % | 16 vol % | 9 vol % | 13 vol % | 16 vol % | 17 vol % | 15% |  |  |
| Polyethylene glycol (Molecular weight = 200) [PEG 200] | 14 vol % |  | 20 vol % | 19 vol % | 9 vol % |  | 18 vol % | 18 vol % | 16% |  | Overall performance rating (second protocol rating) ([2]; sum of ratings of air entrainment recovery by 0.05% and 0.1% SA, DDBS 0.0125 wt %, 50:50 B1 fly ash:cement paste): 3 |
| COCCO [EGME, Ethylene glycol methyl ether] | 12 vol % | 20 vol % | 20 vol % | 17 vol % | 8 vol % | 12 vol % | 17 vol % | 18 vol % | 15% | 1 | B1 + 0.0125% DDBS + 0.05% SA (air entrainment) [2]: 3.3; B1 + 0.0125% DDBS + 0.1% SA (air entrainment) [2]: 4.3; PCA + 0.1% SA (level of air entrainment by the candidate sacrificial agent) [2]: 0.7; SA Rating (0-4) [2]: 1 |
| Polyethylene glycol (Molecular weight = 1500) [PEG 1500] | 14 vol % |  | 21 vol % | 18 vol % | 9 vol % |  | 18 vol % | 20 vol % | 16% |  | Air entrained at 66 min ([1]; 50:50 fly ash B1 (LOI 4.36%):PCA paste, Air 30 (0.0125%)/NS/X=1/4/4, X = the labelled SA): 8 vol %; Air entrained at 66 min ([1]; 50:50 fly ash D (LOI […]):PCA paste, Air 30 (0.0125%)/NS/X=1/4/4, X = the labelled SA): 19 vol %; Air entrained at 66 min ([1]; 50:50 fly ash M1 (LOI […]):PCA paste, Air 30 (0.0125%)/NS/X=1/4/4, X = the labelled SA): 18 vol %; Air entrained at 66 min ([1]; 50:50 fly ash M2 (LOI 5.34%):PCA paste, Air 30 (0.0125%)/NS/X=1/4/4, X = the labelled SA): 5 vol %; Air entrained at 66 min ([1]; 50:50 fly ash R (LOI […]):PCA paste, Air 30 (0.0125%)/NS/X=1/4/4, X = the labelled SA): 16 vol %; Air entrained at 66 min ([1]; PCA paste, no fly ash, Air 30 (0.0125%)/NS/X=1/4/4, X = the labelled SA): 11 vol % |
